PMC8474110 (Journal of Medicinal Chemistry, 2021)
Like-named read-outs stand apart in the source and are kept apart here.

Assays:
[1] = test system: VEGF-A-stimulated human retinal endothelial cells (HRECs); set-up: method as in PMID 27739690; settings: cited from earlier work
[2] = Chemical stability (kinetics of chemical hydrolysis) in buffer solutions; type: physicochemical; settings: for half-life at 9.1 µM: read-out: t1/2, chemical stability (converted)
Method: The chemical stability of (±)-1 was evaluated in buffer solutions at pH 1.3 and 7.4 (Table 1).
A 0.02 M phosphate buffer (PBS, pH 7.4) and a 0.02 M hydrochloric buffer (pH 1.3) containing 0.1% (v/v) Cremophor ELP, was used to evaluate chemical stabilities at physiological pHs. The reaction was initiated by adding 1 mL of 10^–4 M stock solution (in acetonitrile) of the compound to 10 mL of thermostated (37 ± 0.5 °C) buffer solution. At established time points, the samples (20 μL) were withdrawn and analyzed by HPLC. Pseudo-first-order rate constants (kobs) for the hydrolysis of the compounds were then calculated considering the slopes of the linear plots of log (% residual compound) against time. The analyses were run in triplicate, and the mean values of the rate constants were calculated.

In the case of `CCCC(CCC)C(=O)OC(CCCN1CCC(O)(c2ccc(Cl)cc2)CC1)c1ccc(F)cc1` (racemic) [(±)-1], the “reduction of cell migration and proliferation, times more than (±)-HP-mII” value [1] is listed as 20 times, the “reduction of cell migration and proliferation, times more than VPA” value [1] is listed as 120 times and the “Kobs, chemical stability” value ([2]; buffer pH 1.3, 37 °C) is listed as 0.007 ± 0.001 h^–1. The “Kobs, chemical stability” value ([2]; buffer pH 7.4, 37 °C) was 0.007 ± 0.001 h^–1, the “time the racemate was stable” value ([2]; buffer solutions at pH 1.3 and 7.4 (both environments)) was “about 4 days” and the half-life at 9.1 µM ([2]; hydrochloric buffer, buffer pH 1.3, 37 °C) was 100 ± 3.1 h. For the same compound, the half-life at 9.1 µM ([2]; phosphate buffer, buffer pH 7.4, 37 °C) was 96.4 ± 1.6 h.
